According to ChEMBL document CHEMBL5728754 (2021):

Target: Mitogen-activated protein kinase kinase kinase kinase 1 (Homo sapiens, UniProt Q92918)
Assay: HPK1 Biochemical Enzyme Assay: HPK1 enzyme inhibition was measured using a microfluidic mobility shift assay (MSA). The reactions were conducted in 50 μL volumes in 96-well plates, and contained 0.5 nM human full-length recombinant HPK1, 3 μM phosphoacceptor peptide, 5FAM-[…]-COOH (CPC Scientific, Sunnyvale, Calif.), test compound (11-dose 3-fold serial dilutions, 2% DMSO final) or DMSO only, 0.002% Tween-20, 1 mM DTT and 2.5 mM MgCl2 in 50 mM MOPS (3-(N-morpholino)propanesulfonic acid), pH 7.8, buffer and were initiated by addition of 75 μM ATP, following a 20-min preincubation. The reactions were conducted for 60 min at 37° C., stopped by the addition of 50 μL of 0.015 M EDTA, pH 8, and the extent of reactions (˜15-20% conversion with no inhibitor) was determined after electrophoretic separation of the fluorescently labeled peptide substrate and phosphorylated product on an LabChip EZ Reader II (PerkinElmer, Inc., Waltham, Mass.).Inhibition of HPK1 was also measured using the fluorescence based chelation-enhanced fluorescence (CHEF) method (1), using a proprietary fluorescent peptide substrate, in which a cysteine residue is alkylated with a sulfonamido-oxine based derivative to afford an amino acid termed C-Sox (CSx). The assay was conducted similarly as described for the MSA method above, but using 3 μM Ac-[CSx][…]-amide peptide substrate (also known as AQT0178 when purchased from AssayQuant Technologies Inc., Hopkinton, Mass.) and 45 μM ATP. Initial reaction velocities were determined by following the peptide fluorescence (λex=360 nm, λem=500 nm) at 30° C. for 15 min in a Tecan M1000 plate reader (Tecan Group Ltd., Männedorf, Zürich, Switzerland). […] HPK1 protein was produced in-house and preactivated by autophosphorylation of enzyme with MgATP as described in the section “Production of recombinant autophosphorylated full-length HPK1”.
Type: single protein

Mitogen-activated protein kinase kinase kinase kinase 1, sequence (Q92918 whole entry): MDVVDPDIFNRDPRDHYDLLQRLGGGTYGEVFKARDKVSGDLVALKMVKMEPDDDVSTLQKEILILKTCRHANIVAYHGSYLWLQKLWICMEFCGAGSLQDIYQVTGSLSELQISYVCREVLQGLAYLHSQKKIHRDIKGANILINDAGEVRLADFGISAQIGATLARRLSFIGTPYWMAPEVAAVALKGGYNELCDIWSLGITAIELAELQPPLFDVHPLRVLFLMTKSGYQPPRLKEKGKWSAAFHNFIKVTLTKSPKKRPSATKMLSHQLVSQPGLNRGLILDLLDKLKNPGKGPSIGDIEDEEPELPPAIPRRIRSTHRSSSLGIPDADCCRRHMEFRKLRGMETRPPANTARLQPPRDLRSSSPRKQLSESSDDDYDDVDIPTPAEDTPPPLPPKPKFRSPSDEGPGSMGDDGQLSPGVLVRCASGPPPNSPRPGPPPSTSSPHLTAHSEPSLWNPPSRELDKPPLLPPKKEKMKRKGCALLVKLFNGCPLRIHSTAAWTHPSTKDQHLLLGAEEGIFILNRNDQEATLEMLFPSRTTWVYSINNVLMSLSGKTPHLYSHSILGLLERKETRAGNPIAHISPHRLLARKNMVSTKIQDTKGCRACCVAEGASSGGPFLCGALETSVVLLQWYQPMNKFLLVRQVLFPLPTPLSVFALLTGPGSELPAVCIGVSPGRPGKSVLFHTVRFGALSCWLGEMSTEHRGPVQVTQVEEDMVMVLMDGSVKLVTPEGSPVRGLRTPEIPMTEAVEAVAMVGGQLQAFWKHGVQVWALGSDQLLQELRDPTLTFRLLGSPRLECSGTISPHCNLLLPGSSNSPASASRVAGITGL

Row | Ki [nM] | SMILES
1 | 0.09 | CCn1c(C)nnc1-c1cccc(N2Cc3c(cc(N4CCC[C@H]4C)nc3CNC)C2=O)n1
2 | 0.72 | CNCc1nc(NC)cc2c1CN(c1cccc(-c3nncn3C(C)C)n1)C2=O
3 | < 0.07 | CNCc1nc(N2CCCC2)cc2c1CN(c1cccc(-c3nncn3[C@@H](C)CC(F)(F)F)n1)C2=O
4 | 0.1 | Cc1nnc(-c2cccc(N3Cc4c(cc(N5CCCC5(C)C)nc4CN)C3=O)n2)n1C(C)C
